This is an account of results in patent US9540307B2, “Statins of omega-3 polyunsaturated acids for treating hypercholesterolemia” (Jiva Pharma, Inc., priority 2014, dated 2017).

Structures can show the parent of a compound that is named as a salt.

This test deals with T1, soluble catalytic domain fragment of human HMG reductase (Homo sapiens, UniProt P04035).
T1 construct: composed of insoluble transmembrane segment and soluble catalytic domain; purchased Sigma-Aldrich CS 1090
T1 sequence (P04035 340-888 limits assumed): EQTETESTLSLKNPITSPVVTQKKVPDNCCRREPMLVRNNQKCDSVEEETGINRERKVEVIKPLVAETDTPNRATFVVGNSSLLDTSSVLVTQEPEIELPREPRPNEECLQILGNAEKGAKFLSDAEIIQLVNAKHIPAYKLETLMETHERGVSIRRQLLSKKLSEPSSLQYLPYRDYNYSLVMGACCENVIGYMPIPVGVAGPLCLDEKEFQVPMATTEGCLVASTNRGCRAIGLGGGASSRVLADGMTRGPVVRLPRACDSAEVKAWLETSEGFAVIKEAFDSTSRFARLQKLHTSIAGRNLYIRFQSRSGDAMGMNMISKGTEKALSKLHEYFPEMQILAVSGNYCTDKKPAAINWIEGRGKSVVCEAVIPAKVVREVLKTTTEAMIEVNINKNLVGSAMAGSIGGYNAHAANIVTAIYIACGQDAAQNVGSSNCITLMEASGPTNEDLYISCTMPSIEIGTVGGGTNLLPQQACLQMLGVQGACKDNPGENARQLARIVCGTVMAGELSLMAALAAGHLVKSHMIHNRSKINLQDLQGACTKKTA
Kind of test: HMG-Co-A reductase inhibition activity, dose-response curves (Sigma-Aldrich assay kit, absorbance at 340 nm). The format is biochemical. The following applies: for IC50: NADP(H) 250 μM, sub-saturating NADP(H) and coenzyme A, decrease in absorbance at 340 nm, read-out: IC50 μM error; for Hill coefficient: fit of the dose-response curve; for potency relative to pravastatin in inhibiting HMG-CO-A-reductase enzyme: fraction of the potency of pravastatin. An excerpt:
SigmaAldrich. […] In: catalog number CS 1090. […].com/catalog/product/[…]®ion=HR. […] Holdgate G, Ward […]. […] Louis-Flamberg […], Bryan D L, Leber J, Elliott […] et al. […], Buchanan […]. Crystal structure of the catalytic portion of human HMG-CoA reductase: insights into regulation of activity and catalysis. […] Motulsky H, Christopoulos A. Fitting Models to Biological Data Using Linear and Nonlinear Regression: A Practical Guide to Curve Fitting Oxford University Press, USA; 1 edition 2004. […] Briefly, the dose-response curves have been measured using soluble catalytic domain fragment of human HMG reductase. […] The activity was measured by following decrease in a sample's absorbance at 340 nm caused by enzymatic oxidation of NADP(H) in presence of coenzyme A. […] NADP(H) concentration in the assay mix was adjusted to 250 μM. […] Stock solutions of Na salts of EPA-statin, ALA-statin were prepared in assay buffer in concentration of 50 mM, and subsequently diluted to lower concentrations in the same buffer as needed.

By IC50 is commonly meant the concentration at which inhibition is half-maximal. What is called Hill coefficient is a measure of the steepness of the concentration-response curve. On to `CC/C=C\C/C=C\C/C=C\CCCCCCC[C@@H](O)C[C@@H](O)CC(=O)O` [ALA-statin, Na salt, Sodium (3R,5R,13Z,16Z,19Z)-3,5-dihydroxydocosa-13,16,19-trienoate], for which the IC50 came to 25 ± 7 µM, the Hill coefficient was determined as 1.3 ± 0.3 and the “potency relative to pravastatin in inhibiting HMG-CO-A-reductase enzyme” value is “about 1/20”.
`CC/C=C\C/C=C\C/C=C\C/C=C\C/C=C\CCC[C@@H](O)C[C@@H](O)CC(=O)[O-].[Na+]` [EPA-statin, Na salt, Sodium (3R,5R,9Z,12Z,15Z,18Z,21Z)-3,5-dihydroxytetracosa-9,12,15,18,21-pentaenoate]: the half-maximal inhibitory concentration (IC50) turned out to be 94 ± 8 µM, the Hill coefficient was determined as 1.6 ± 0.6 and the “potency relative to pravastatin in inhibiting HMG-CO-A-reductase enzyme” value is “about 1/100”.
